Measured values reported in ChEMBL document CHEMBL4680138, “A 18β-glycyrrhetinic acid conjugate with Vorinostat degrades HDAC3 and HDAC6 with improved antitumor effects” (Eur J Med Chem, 2020).
Activity calls are given as the source filed them. No cut-off for these calls is given here.

Columns and labels:
HL-60 [1] = assay: Antiproliferative activity against human HL-60 cells assessed as cell growth inhibition after 72 hrs by trypan blue staining based cell counting assay; format: functional; conditions: HL-60, 72 h
PC-3 = assay: Cytotoxicity against human PC-3 cells assessed as reduction in cell viability after 96 hrs by MTT assay; format: functional, cell-based; conditions: PC-3, 96 h
HL-60 [2] = assay: Induction of apoptosis in human HL-60 cells assessed as early apoptotic cells at 1 uM measured after 24 hrs by Annexin-V/FITC and propidium iodide staining based flow cytometry (reference value: 2.46 %); format: functional
HL-60 [3] = assay: Upregulation of acetylated H3 level in human HL-60 cells at 2 uM measured after 12 hrs by Western blot analysis; format: functional, cell-based
HL-60 [4] = assay: Induction of apoptosis in human HL-60 cells assessed as increase in accumulation at sub-G1 phase at 0.5 uM after 24 hrs by propidium iodide staining based flow cytometry (reference value: 2.72 %); format: functional
HL-60 [5] = assay: Induction of apoptosis in human HL-60 cells assessed as increase in accumulation at sub-G1 phase at 1 uM after 24 hrs by propidium iodide staining based flow cytometry (reference value: 2.72 %); format: functional
HL-60 [6] = assay: Induction of apoptosis in human HL-60 cells assessed as live cells at 2 uM measured after 24 hrs by Annexin-V/FITC and propidium iodide staining based flow cytometry (reference value: 89.29 %); format: functional
HL-60 [7] = assay: Induction of apoptosis in human HL-60 cells assessed as increase in accumulation at sub-G1 phase at 2 uM after 24 hrs by propidium iodide staining based flow cytometry (reference value: 2.72 %); format: functional
HL-60 [8] = assay: Induction of apoptosis in human HL-60 cells assessed as late apoptotic cells at 2 uM measured after 24 hrs by Annexin-V/FITC and propidium iodide staining based flow cytometry (reference value: 7.24 %); format: functional
HL-60 [9] = assay: Induction of apoptosis in human HL-60 cells assessed as live cells at 1 uM measured after 24 hrs by Annexin-V/FITC and propidium iodide staining based flow cytometry (reference value: 89.29 %); format: functional
HL-60 [10] = assay: Induction of apoptosis in human HL-60 cells assessed as necrotic cells at 1 uM measured after 24 hrs by Annexin-V/FITC and propidium iodide staining based flow cytometry (reference value: 1.01 %); format: functional
HL-60 [11] = assay: Induction of apoptosis in human HL-60 cells assessed as necrotic cells at 2 uM measured after 24 hrs by Annexin-V/FITC and propidium iodide staining based flow cytometry (reference value: 1.01 %); format: functional
HL-60 [12] = assay: Induction of apoptosis in human HL-60 cells assessed as necrotic cells at 0.5 uM measured after 24 hrs by Annexin-V/FITC and propidium iodide staining based flow cytometry (reference value: 1.01 %); format: functional
HL-60 [13] = assay: Induction of apoptosis in human HL-60 cells assessed as live cells at 0.5 uM measured after 24 hrs by Annexin-V/FITC and propidium iodide staining based flow cytometry (reference value: 89.29 %); format: functional
HL-60 [14] = assay: Induction of apoptosis in human HL-60 cells assessed as late apoptotic cells at 1 uM measured after 24 hrs by Annexin-V/FITC and propidium iodide staining based flow cytometry (reference value: 7.24 %); format: functional
HL-60 [15] = assay: Induction of apoptosis in human HL-60 cells assessed as early apoptotic cells at 0.5 uM measured after 24 hrs by Annexin-V/FITC and propidium iodide staining based flow cytometry (reference value: 2.46 %); format: functional
HL-60 [16] = assay: Induction of apoptosis in human HL-60 cells assessed as late apoptotic cells at 0.5 uM measured after 24 hrs by Annexin-V/FITC and propidium iodide staining based flow cytometry (reference value: 7.24 %); format: functional
HL-60 [17] = assay: Induction of apoptosis in human HL-60 cells assessed as early apoptotic cells at 2 uM measured after 24 hrs by Annexin-V/FITC and propidium iodide staining based flow cytometry (reference value: 2.46 %); format: functional
HL-60 [18] = assay: Upregulation of acetylated alpha-tubulin level in human HL-60 cells at 2 uM measured after 12 hrs by Western blot analysis; format: functional, cell-based

SMILES | IC50 (HL-60 [1]) | IC50 (PC-3) | further results
CC1(C)[C@@H](O)CC[C@]2(C)[C@H]3C(=O)C=C4[C@@H]5C[C@@](C)(C(=O)N6CCN(c7ccc(NC(=O)CCCCCCC(=O)NO)cc7)CC6)CC[C@]5(C)CC[C@@]4(C)[C@]3(C)CC[C@@H]12 | 0.72 µM | 2.48 µM | 
CC1(C)[C@@H](O)CC[C@]2(C)[C@H]3C(=O)C=C4[C@@H]5C[C@@](C)(C(=O)OCCCOc6ccc(NC(=O)CCCCCC(=O)NO)cc6)CC[C@]5(C)CC[C@@]4(C)[C@]3(C)CC[C@@H]12 | 1.62 µM | 4.31 µM | 
CC1(C)[C@@H](O)CC[C@]2(C)[C@H]3C(=O)C=C4[C@@H]5C[C@@](C)(C(=O)NCCCCCC(=O)NO)CC[C@]5(C)CC[C@@]4(C)[C@]3(C)CC[C@@H]12 | 8.78 µM | 13.6 µM | 
CC1(C)[C@@H](O)CC[C@]2(C)[C@H]3C(=O)C=C4[C@@H]5C[C@@](C)(C(=O)NCCCCCCC(=O)NO)CC[C@]5(C)CC[C@@]4(C)[C@]3(C)CC[C@@H]12 | 9.53 µM | 11.8 µM | 
COC(=O)[C@@]1(C)CC[C@]2(C)CC[C@]3(C)C(=CC(=O)[C@@H]4[C@@]5(C)C=C(C#N)C(=O)C(C)(C)[C@@H]5CC[C@]43C)[C@@H]2C1 | 1.35 µM | 1.68 µM | Activity (HL-60 [2]): 3.27%; Activity (HL-60 [3]): inactive; Activity (HL-60 [4]): 2.91%; Activity (HL-60 [5]): 3.57%; Activity (HL-60 [6]): 77.42%; Activity (HL-60 [7]): 19.18%; Activity (HL-60 [8]): 16.96%; Activity (HL-60 [9]): 81.11%; Activity (HL-60 [10]): 2.31%; Activity (HL-60 [11]): 3.1%; Activity (HL-60 [12]): 1.89%; Activity (HL-60 [13]): 87.34%; Activity (HL-60 [14]): 13.31%; Activity (HL-60 [15]): 1.77%; Activity (HL-60 [16]): 9%; Activity (HL-60 [17]): 2.52%
CC1(C)[C@@H](O)CC[C@]2(C)[C@H]3C(=O)C=C4[C@@H]5C[C@@](C)(C(=O)O)CC[C@]5(C)CC[C@@]4(C)[C@]3(C)CC[C@@H]12 [ENOXOLONE] | 55.3 µM | 105 µM | 
CC1(C)[C@@H](O)CC[C@]2(C)[C@H]3C(=O)C=C4[C@@H]5C[C@@](C)(C(=O)NCCCC(=O)NO)CC[C@]5(C)CC[C@@]4(C)[C@]3(C)CC[C@@H]12 | 21.6 µM | 25.1 µM | 
CC1(C)[C@@H](O)CC[C@]2(C)[C@H]3C(=O)C=C4[C@@H]5C[C@@](C)(C(=O)N6CCN(c7ccc(NC(=O)CCCCC(=O)NO)cc7)CC6)CC[C@]5(C)CC[C@@]4(C)[C@]3(C)CC[C@@H]12 | 3.35 µM | 5.53 µM | 
CC1(C)[C@@H](O)CC[C@]2(C)[C@H]3C(=O)C=C4[C@@H]5C[C@@](C)(C(=O)NCCCCC(=O)NO)CC[C@]5(C)CC[C@@]4(C)[C@]3(C)CC[C@@H]12 | 15.5 µM | 18.5 µM | 
CC1(C)[C@@H](O)CC[C@]2(C)[C@H]3C(=O)C=C4[C@@H]5C[C@@](C)(C(=O)OCCCOc6ccc(NC(=O)CCCCCCC(=O)NO)cc6)CC[C@]5(C)CC[C@@]4(C)[C@]3(C)CC[C@@H]12 | 2.77 µM | 5.37 µM | 
CC1(C)[C@@H](O)CC[C@]2(C)[C@H]3C(=O)C=C4[C@@H]5C[C@@](C)(C(=O)N6CCN(c7ccc(NC(=O)CCCC(=O)NO)cc7)CC6)CC[C@]5(C)CC[C@@]4(C)[C@]3(C)CC[C@@H]12 | 4.79 µM | 11.8 µM | 
CC1(C)[C@@H](O)CC[C@]2(C)[C@H]3C(=O)C=C4[C@@H]5C[C@@](C)(C(=O)N6CCN(c7ccc(NC(=O)CCCCCC(=O)NO)cc7)CC6)CC[C@]5(C)CC[C@@]4(C)[C@]3(C)CC[C@@H]12 | 1.79 µM | 3.09 µM | 
O=C(CCCCCCC(=O)Nc1ccccc1)NO [VORINOSTAT] |  |  | Activity (HL-60 [2]): 2.42%; Activity (HL-60 [3]): Active; Activity (HL-60 [18]): Active; Activity (HL-60 [4]): 2.07%; Activity (HL-60 [5]): 5.34%; Activity (HL-60 [6]): 49.4%; Activity (HL-60 [7]): 43.31%; Activity (HL-60 [8]): 39.71%; Activity (HL-60 [9]): 82.27%; Activity (HL-60 [10]): 2.36%; Activity (HL-60 [11]): 5.87%; Activity (HL-60 [12]): 1.94%; Activity (HL-60 [13]): 86.69%; Activity (HL-60 [14]): 12.96%; Activity (HL-60 [15]): 2.41%; Activity (HL-60 [16]): 8.95%; Activity (HL-60 [17]): 5.02%
CC1(C)[C@@H](O)CC[C@]2(C)[C@H]3C(=O)C=C4[C@@H]5C[C@@](C)(C(=O)OCCOc6ccc(NC(=O)CCCCCC(=O)NO)cc6)CC[C@]5(C)CC[C@@]4(C)[C@]3(C)CC[C@@H]12 | 2.83 µM | 3.68 µM | 
CC1(C)[C@@H](O)CC[C@]2(C)[C@H]3C(=O)C=C4[C@@H]5C[C@@](C)(C(=O)OCCOc6ccc(NC(=O)CCCC(=O)NO)cc6)CC[C@]5(C)CC[C@@]4(C)[C@]3(C)CC[C@@H]12 | 1.53 µM | 6.94 µM | 
CC1(C)[C@@H](O)CC[C@]2(C)[C@H]3C(=O)C=C4[C@@H]5C[C@@](C)(C(=O)OCCCOc6ccc(NC(=O)CCCC(=O)NO)cc6)CC[C@]5(C)CC[C@@]4(C)[C@]3(C)CC[C@@H]12 | 1.34 µM | 4.43 µM | 
CC1(C)[C@@H](O)CC[C@]2(C)[C@H]3C(=O)C=C4[C@@H]5C[C@@](C)(C(=O)OCCCOc6ccc(NC(=O)CCCCC(=O)NO)cc6)CC[C@]5(C)CC[C@@]4(C)[C@]3(C)CC[C@@H]12 | 1.42 µM | 3.95 µM | 
CC1(C)[C@@H](O)CC[C@]2(C)[C@H]3C(=O)C=C4[C@@H]5C[C@@](C)(C(=O)OCCOc6ccc(NC(=O)CCCCCCC(=O)NO)cc6)CC[C@]5(C)CC[C@@]4(C)[C@]3(C)CC[C@@H]12 | 4.42 µM | 8.43 µM | 
CC1(C)[C@@H](O)CC[C@]2(C)[C@H]3C(=O)C=C4[C@@H]5C[C@@](C)(C(=O)OCCOc6ccc(NC(=O)CCCCC(=O)NO)cc6)CC[C@]5(C)CC[C@@]4(C)[C@]3(C)CC[C@@H]12 | 2.08 µM | 8.22 µM | 
